The assay relates to novel coronavirus (SARS-CoV-2). In words: microbe, parasite or virus in culture. The settings on record: for IC50: Severe acute respiratory syndrome coronavirus 2, Vero, 24 h, read-out: Infection inhibitory concentration IC50. It counts as cell-based.

With `COC(=O)c1cc(/C=C/C(=O)N2CCC=C(Cl)C2=O)ccc1OC(C)=O` [Compound 13, (E)-methyl-2-acetoxy-5-(3-(3-chloro-2-oxo-5,6-dihydropyridin-1(2H)-yl)-3-oxoprop-1-en-1-yl)benzoate], the “inhibition of viral infection compared with positive controls (in words)” value was “more remarkable effects than remdesivir” and the IC50 was found to be 1.86 µM.

As for `COC(=O)c1cc(/C=C/C(=O)N2CC=CC2=O)ccc1OC(C)=O` [Compound 4, (E)-methyl-2-acetoxy-5-(3-oxo-3-(2-oxo-2,5-dihydro-1H-pyrrol-1-yl)prop-1-en-1-yl)benzoate], the IC50 was 7.68 µM.

Take `COC(=O)c1cc(/C=C/C(=O)N2CCC=C(Cl)C2=O)ccc1O` [Compound 12, (E)-methyl-5-(3-(3-chloro-2-oxo-5,6-dihydropyridin-1(2H)-yl)-3-oxoprop-1-en-1-yl)-2-hydroxybenzoate]: the “inhibition of viral infection compared with positive controls (in words)” value was “more remarkable effects than remdesivir” and the IC50 worked out at 2.63 µM.

As to `COc1cc(/C=C/C(=O)N2CCC=C(Cl)C2=O)cc(OC)c1OCc1nnc(-c2cc(Cl)cc(Cl)c2)o1` [Compound 19, (E)-3-chloro-1-(3-(4-((5-(3,5-dichlorophenyl)-1,3,4-oxadiazol-2-yl)methoxy)-3,5-dimethoxyphenyl)acryloyl)-5,6-dihydropyridin-2(1H)-one], the IC50 came out at 4.12 µM.

`COC(=O)c1cc(/C=C/C(=O)N2CCC=C(Br)C2=O)ccc1OC(C)=O` [Compound 11, (E)-methyl-2-acetoxy-5-(3-(3-bromo-2-oxo-5,6-dihydropyridin-1(2H)-yl)-3-oxoprop-1-en-1-yl)benzoate]: the “inhibition of viral infection compared with positive controls (in words)” value is “more remarkable effects than remdesivir” and the IC50 worked out at 1.97 µM.

As to `CCN(CC)CCCC(C)Nc1ccnc2cc(Cl)ccc12` (centres unmarked) [Chloroquine, reference compound], the IC50 turned out to be 4.1 µM.

As to `O=C(/C=C/c1cccc([N+](=O)[O-])c1)N1CCC=C(Cl)C1=O` [Compound 16, (E)-3-chloro-1-(3-(3-nitrophenyl)acryloyl)-5,6-dihydropyridin-2(1H)-one], the IC50 was determined as 4.19 µM.

On to `COC(=O)c1cc(/C=C/C(=O)N2CCC=C(Br)C2=O)ccc1O` [Compound 10, (E)-methyl-5-(3-(3-bromo-2-oxo-5,6-dihydropyridin-1(2H)-yl)-3-oxoprop-1-en-1-yl)-2-hydroxybenzoate], for which the “inhibition of viral infection compared with positive controls (in words)” value is “more remarkable effects than remdesivir” and the IC50 is 2.31 µM.

As for `COC(=O)c1cc(/C=C/C(=O)N2CCC=C(Br)C2=O)ccc1OC` [Compound 9, (E)-methyl-5-(3-(3-bromo-2-oxo-5,6-dihydropyridin-1(2H)-yl)-3-oxoprop-1-en-1-yl)-2-methoxybenzoate], the “inhibition of viral infection compared with positive controls (in words)” value is reported as “more remarkable effects than remdesivir” and the IC50 stood at 1.6 µM.

In the case of `O=C(/C=C/c1cccc([N+](=O)[O-])c1)N1CCC=C(Br)C1=O` [Compound 17, (E)-3-bromo-1-(3-(3-nitrophenyl)acryloyl)-5,6-dihydropyridin-2(1H)-one], the IC50 is 5.34 µM.

In the case of `CCC(CC)COC(=O)[C@H](C)N[P@](=O)(OC[C@H]1O[C@@](C#N)(c2ccc3c(N)ncnn23)[C@H](O)[C@@H]1O)Oc1ccccc1` [Remdesivir, remdesivir, reference compound], the IC50 came out at 2.65 µM.

For the molecule `COC(=O)c1cc(/C=C/C(=O)N2CCC=CC2=O)ccc1OC` [Compound 1, (E)-methyl-2-methoxy-5-(3-oxo-3-(2-oxo-5,6-dihydropyridin-1(2H)-yl)prop-1-en-1-yl)benzoate], the IC50 was 4.46 µM.

Consider `Cc1cccc(C)c1OCC(=O)N[C@@H](Cc1ccccc1)[C@@H](O)C[C@H](Cc1ccccc1)NC(=O)[C@H](C(C)C)N1CCCNC1=O` [Lopinavir, lopinavir, reference compound], for which the IC50 worked out at 12.7 µM.

Take `COC(=O)c1cc(/C=C/C(=O)N2CCC=C(Cl)C2=O)ccc1OC` [Compound 3, (E)-methyl-5-(3-(3-chloro-2-oxo-5,6-dihydropyridin-1(2H)-yl)-3-oxoprop-1-en-1-yl)-2-methoxybenzoate]: the “inhibition of viral infection compared with positive controls (in words)” value is “more remarkable effects than remdesivir” and the IC50 was found to be 2.01 µM.

Source of the values: patent US20240100031A1, “PHARMACEUTICAL COMPOSITION FOR PREVENTING OR TREATING VIRAL […] PIPERLONGUMINE-BASED COMPOUND AS ACTIVE INGREDIENT” (priority 2020, published 2024).
